Tested on: human patients
Experiment: Administration to human patients, efficacy as a cognition enhancer
Assay type: in vivo
Procedure: Compound X has active doses around 5-125 microgramme (μg) (calculated as free base). It has been found through administration to human patients that efficacy as a cognition enhancer may be obtained at daily doses below 0.01 mg/kg more particularly 0.003 mg/kg and below, for example 0.0001-0.003 mg/kg, such as 0.00035-0.003 mg/kg. 0.0007-0.003 mg/kg, 0.0001-0.0007 mg/kg or 0.00035-0.002 mg/kg.

Question: Which active doses (calculated as free base) does the source give for CO/N=C(\C#N)[C@H]1CN2CCC1CC2.Cl [Compound X, [R-(Z)]-α-(methoxyimino)-α-(1-azabicyclo [2.2.2]oct-3-yl)acetonitrile monohydrochloride] here?
Answer: 5 to 125 µg

Question: What about the “daily doses at which efficacy as a cognition enhancer may be obtained” value (human patients, daily dose) of the same compound?
Answer: below 0.01 mg/kg

— patent US6468560B2, “Controlled release dosage form of [R-(Z)]-α-(methoxyimino)-α-(1-azabicyclo[2.2.2]oct-3yl) acetonitrile monohydrochloride” (SmithKline Beecham p.l.c., priority 1996, dated 2002)
